These results are taken from patent publication EP4691458A1, “SELF-MICROEMULSION PHARMACEUTICAL PREPARATION COMPOSITION CONTAINING ALK KINASE INHIBITOR AND PREPARATION METHOD THEREFOR” (Shouyao Holdings (Beijing) Co., Ltd., priority 2023, dated 2024).

A short description of data set [1]: Solubility of the compound of formula (I) at different pH. It is filed as physicochemical. How it is done:
(§1) The compound of formula (I) has strong hydrophobicity, poor water solubility, and significant pH dependence. It has high solubility at low pH (about 30 mg/ml at pH 1.2), and the solubility decreases sharply with increasing pH (about 10 ug/ml in water). […] Therefore, it is an urgent problem to overcome the shortcomings of the compound of formula (I), such as strong hydrophobicity, poor water solubility, and thermal instability, and to prepare it into a formulation with stable quality, good patient compliance, and wide clinical applicability.

The nature of data set [2]: Thermal stability of the compound of formula (I). Type of data set: physicochemical. As to conditions: degradation impurities generated at high temperatures. As to the method:
as §1

Molecules are shown by their SMILES.

On to `COc1cc(N2CCC(N(C)C)CC2)ccc1Nc1nc2c(c(Nc3ccccc3S(=O)(=O)C(C)C)n1)CCN2` [compound of formula (I), N^2-(4-(4-(dimethylamino)piperidin-1-yl)-2-methoxyphenyl)-N^4-(2-(isopropylsulfonyl)phenyl)-6,7-dihydro-5H-pyrrolo[2,3-d]pyrimidine-2,4-diamine], for which the solubility (commonly the concentration that dissolves in the medium under given conditions) in data set [1] (in water) is approximately 0.01 mg/mL; in data set [1] (simulated gastric fluid, at pH 1.2), approximately 30 mg/mL. Moreover, the thermal stability entry in data set [2] is “thermally unstable”.
